According to US20260234123A1, “Inhibitors of NLRP3” (Mwyngil Therapeutics, Inc., priority 2023, published 2026):

system: IL1b release THP-1; test: IL1b release THP-1 (ELISA); format: cell-based; settings: Homo sapiens, THP-1, read-out: THP 1 IL 1b, EC50, μM
Protocol: Example A. Primary Assays Used to Determine IL1b Release THP-1 (ELISA)
• Microbiological safety cabinet, classII (NuAire, USA) • CO2 incubator (VWR Science, USA) • Countess Automated Cell Counter (Invitrogen, USA, cat. number C10227) • Centrifuge CM 6M (Elmi, Latvia) • Serological pipettes 2, 5, 10, 25, 50, 100 ml sterile (Santa Cruz Biotechnology, Inc., USA, sc-200277, sc-200279, sc-200281, sc-200283, Sc-213234, sc-516777) • Single and multichannel pipettes 0.2-10 μL, 50-1200 μL (Eppendorf AG-Hamburg, Germany) • 50 mL PP sterile tubes (Greiner, cat. Number 210261).
• RPMI-1640 (PanEco, C330) • Sodium pyruvate (Paneco, cat. number Φ023) • Non-Essential amino acids 50× (Paneco, Φ116) • Essential amino acids 50× (Paneco, Φ115/50) • FBS (Hyclone Laboratories Inc, USA, SV30160.03) • Antibiotic-antimycotic (Gibco, USA, 15240-062) • 2-mercaptoethanol 1000×55 mM (Gibco, USA, 21985-023) • LPS-EB ultrapure (invivogen, cat. number tlrl-3pelps) • Nigericin (Sigma, cat. number N7143) • ELISA kit, IL-1beta (Cat #A-8766, Interleukin-1 beta-EIA-BEST, Vector Best). LPS Preparation (5 mg/ml): • 1. Add 1 ml of endotoxin-free water according manufacturer's protocol • 2. Vortex until complete solubilization • 3. Aliquote and store at […] for long term storage.
• 1. Add methanol to 10 mg of powder to produce the 10 mM Nigericin solution • 2. Vortex until complete solubilization • 3. Store at 4° C.
THP-1 cells were propagated in RPMI-1640 (10% FBS, Antibiotic-antimycotic 1×, non-Essential amino acids 1×, Essential amino acids 1×, Sodium pyruvate 2×, 2-mercaptoethanol 0.05 mM) at 37° C. and at 5% CO2 in an incubator.
• 1. THP-1 cells were spined at 100 g for 5 min in 50 ml tube. • 2. THP-1 cells were resuspended in warm culture medium (w/o FBS, w/o Antibiotic-antimycotic, non-Essential amino acids 1×, Essential amino acids 1×, Sodium pyruvate 2×) to the concentration 1,3×10^6 cells. • 3. THP-1 cells were primed in tube with 1 μg/ml of LPS for 4 h at 37° C. and at 5% CO2 in an incubator. • 4. THP-1 cells were stimulated with 10 μM of Nigericin (Cat #N7143-10 MG, Sigma Aldrich) for 2 h at 37° C. and at 5% CO2 in an incubator. • 5. After the full activation, the supernatant was collected and the levels of IL-1β were assessed via ELISA according manufacturer instructions (Cat #A-8766, Vector Best).
The average EC50 values are shown in Table A, wherein “A” corresponds to EC50: A≤0.5 μM, “B” corresponds to 0.5 μM<EC50≤1.0 μM, “C” 1.0 μM<EC50≤5.0 μM, “D” corresponds to 5.0 μM<EC50≤30 μM and “E” corresponds to EC50>30 μM.

Row | Structure (SMILES) | EC50
1 | Cc1cc(-c2ccc(C(F)(F)F)cc2NS(C)(=O)=O)nnc1N[C@@H]1CCCN(C2CCCCC2)C1 [Compound 32, (R)—N-(2-(6-((1-Cyclohexylpiperidin-3-yl)amino)-5-methylpyridazin-3-yl)-5-(trifluoromethyl)phenyl) methanesulfonamide] | < 0.5 µM
2 | CCC(C)N1CCC[C@@H](Nc2cc(C)c(-c3ccc(C(F)(F)F)cc3NS(C)(=O)=O)nn2)C1 (stereo partly drawn) [Compound 35, N-(2-(6-(((3R)-1-(sec-Butyl)piperidin-3-yl)amino)-4-methylpyridazin-3-yl)-5-(trifluoromethyl)phenyl) methanesulfonamide] | < 0.5 µM

same assay, conditions: Homo sapiens; average EC50; THP-1 cells primed with 1 μg/ml LPS 4 h, stimulated with 10 μM Nigericin 2 h; IL-1β in supernatant by ELISA; read-out: THP 1 IL 1b, EC50

Row | EC50 | Structure (SMILES)
3 | 0.5 to 1 µM | Cc1cc(N[C@@H]2CCCN(CC(C)(C)O)C2)nnc1-c1ccc(C(F)(F)F)cc1NS(C)(=O)=O [Compound 47]
4 | 0.5 to 1 µM | CC(C)=CCN1CCC[C@@H](Nc2cc(C)c(-c3ccc(C(F)(F)F)cc3NS(C)(=O)=O)nn2)C1 [Compound 48, (R)—N-(2-(4-Methyl-6-((1-(3-methylbut-2-en-1-yl)piperidin-3-yl)amino)pyridazin-3-yl)-5-(trifluoromethyl)phenyl) methanesulfonamide]
5 | 1 to 5 µM | CCN1CCC[C@@H](Nc2cc(C(F)(F)F)c(-c3ccc(C(F)(F)F)cc3NS(C)(=O)=O)nn2)C1 [Compound 49, N-[2-[6-[[(3R)-1-ethyl-3-piperidyl]amino]-4-(trifluoromethyl)pyridazin-3-yl]-5-(trifluoromethyl)phenyl]methanesulfon-amide]
6 | 1 to 5 µM | CN1CCC[C@@H](Nc2nnc(-c3ccc(C(F)(F)F)cc3NS(C)(=O)=O)c3c2CCCC3)C1 [Compound 50, (R)—N-(2-(4-((1-Methylpiperidin-3-yl)amino)-5,6,7,8-tetrahydrophthalazin-1-yl)-5-(trifluoromethyl)phenyl) methane sulfonamide]
7 | 1 to 5 µM | CN1CCC[C@@H](Nc2cc(C(F)(F)F)c(-c3ccc(C(F)(F)F)cc3NS(C)(=O)=O)nn2)C1 [Compound 51, N-[2-[6-[[(3R)-1-methyl-3-piperidyl]amino]-4-(trifluoromethyl)pyridazin-3-yl]-5-(trifluoromethyl)phenyl]methanesulfon-amide]
8 | 1 to 5 µM | CN1CCC[C@@H](Nc2nnc(-c3ccc(C(F)(F)F)cc3NS(C)(=O)=O)cc2C(F)(F)F)C1 [Compound 52, N-[2-[6-[[(3R)-1-methyl-3-piperidyl]amino]-5-(trifluoromethyl)pyridazin-3-yl]-5-(trifluoromethyl)phenyl]methanesulfon-amide]
9 | 1 to 5 µM | COC(C)(C)CCN1CCC[C@@H](Nc2cc(C)c(-c3ccc(C(F)(F)F)cc3NS(C)(=O)=O)nn2)C1 [Compound 53, N-[2-[6-[[(3R)-1-(3-methoxy-3-methyl-butyl)-3-piperidyl]amino]-4-methyl-pyridazin-3-yl]-5-(trifluoromethyl)phenyl]methanesulfon-amide]
10 | 5 to 30 µM | CN1CCC[C@@H](Nc2nnc(-c3ccc(C(F)(F)F)cc3NS(C)(=O)=O)c3c2C2CCC3CC2)C1 [Compound 54, N-[2-[6-[[(3R)-1-methyl-3-piperidyl]amino]-4,5-diazatricyclo[6.2.2.02,7]dodeca-2(7),3,5-trien-3-yl]-5-(trifluoromethyl)phenyl]methanesulfon-amide]
11 | 1 to 5 µM | Cc1cc(N[C@@H]2CCCN(CCC(C)(C)O)C2)nnc1-c1ccc(C(F)(F)F)cc1NS(C)(=O)=O [Compound 55, (R)—N-(2-(6-((1-(3-Hydroxy-3-methylbutyl)piperidin-3-yl)amino)-4-methylpyridazin-3-yl)-5-(trifluoromethyl)phenyl) methanesulfonamide]

Second part, the compound before the results:

Row | Structure (SMILES) | EC50
12 | Cc1cc(N[C@@H]2CCCN(C3CCCC3)C2)nnc1-c1ccc(C(F)(F)F)cc1NS(C)(=O)=O [Compound 33] | < 0.5 µM
13 | Cc1cc(N[C@@H]2CCCN(C3CCC3)C2)nnc1-c1ccc(C(F)(F)F)cc1NS(C)(=O)=O [Compound 34] | < 0.5 µM
14 | Cc1cc(N[C@@H]2CCCN(C3CC3)C2)nnc1-c1ccc(C(F)(F)F)cc1NS(C)(=O)=O [Compound 36, N-[2-[6-[[(3R)-1-cyclopropyl-3-piperidyl]amino]-4-methyl-pyridazin-3-yl]-5-(trifluoromethyl)phenyl]methanesulfon-amide] | < 0.5 µM
15 | CCN1CCC[C@@H](Nc2nnc(-c3ccc(C(F)(F)F)cc3NS(C)(=O)=O)c3c2CCCC3)C1 [Compound 37, (R)—N-(2-(4-((1-Ethylpiperidin-3-yl)amino)-5,6,7,8-tetrahydrophthalazin-1-yl)-5-(trifluoromethyl)phenyl) methane sulfonamide] | < 0.5 µM
16 | Cc1cc(-c2ccc(C(F)(F)F)cc2NS(C)(=O)=O)nnc1N[C@@H]1CCCN(C2CCOCC2)C1 [Compound 38, (R)—N-(2-(5-Methyl-6-((1-(tetrahydro-2H-pyran-4-yl)piperidin-3-yl)amino)pyridazin-3-yl)-5-(trifluoromethyl)phenyl) methanesulfonamide] | < 0.5 µM
17 | Cc1cc(N[C@@H]2CCCN(C3CCOCC3)C2)nnc1-c1ccc(C(F)(F)F)cc1NS(C)(=O)=O [Compound 39] | < 0.5 µM
18 | Cc1cc(N[C@@H]2CCCN(CC3CCCCC3)C2)nnc1-c1ccc(C(F)(F)F)cc1NS(C)(=O)=O [Compound 40, N-[2-[6-[[(3R)-1-(cyclohexylmethyl)-3-piperidyl]amino]-4-methyl-pyridazin-3-yl]-5-(trifluoromethyl)phenyl]methanesulfon-amide] | < 0.5 µM
19 | Cc1cc(N[C@@H]2CCCN(C3CCCCC3)C2)nnc1-c1ccc(C(F)(F)F)cc1NS(C)(=O)=O [Compound 41, N-[2-[6-[[(3R)-1-cyclohexyl-3-piperidyl]amino]-4-methyl-pyridazin-3-yl]-5-(trifluoromethyl)phenyl]methanesulfon-amide] | < 0.5 µM
20 | Cc1cc(-c2ccc(C(F)(F)F)cc2NS(C)(=O)=O)nnc1N[C@@H]1CCCN(C2CC2)C1 [Compound 42, (R)—N-(2-(6-((1-Cyclopropylpiperidin-3-yl)amino)-5-methylpyridazin-3-yl)-5-(trifluoromethyl)phenyl) methanesulfonamide] | < 0.5 µM
21 | CCN1CCC[C@@H](Nc2cc(C3CC3)c(-c3ccc(C(F)(F)F)cc3NS(C)(=O)=O)nn2)C1 [Compound 43, (R)—N-(2-(4-Cyclopropyl-6-((1-ethylpiperidin-3-yl)amino)pyridazin-3-yl)-5-(trifluoromethyl)phenyl) methanesulfonamide] | < 0.5 µM
22 | Cc1cc(N[C@@H]2CCCN(Cc3ccccc3)C2)nnc1-c1ccc(C(F)(F)F)cc1NS(C)(=O)=O [Compound 44, N-[2-[6-[[(3R)-1-benzyl-3-piperidyl]amino]-4-methyl-pyridazin-3-yl]-5-(trifluoromethyl)phenyl]methanesulfon-amide] | 0.5 to 1 µM
23 | CCN1CCC[C@@H](Nc2nnc(-c3ccc(C(F)(F)F)cc3NS(C)(=O)=O)cc2C(F)(F)F)C1 [Compound 45, N-[2-[6-[[(3R)-1-ethyl-3-piperidyl]amino]-5-(trifluoromethyl)pyridazin-3-yl]-5-(trifluoromethyl)phenyl]methanesulfon-amide] | 0.5 to 1 µM
24 | Cc1cc(N[C@@H]2CCCN(CC(C)C)C2)nnc1-c1ccc(C(F)(F)F)cc1NS(C)(=O)=O [Compound 46, (R)—N-(2-(6-((1-Isobutylpiperidin-3-yl)amino)-4-methylpyridazin-3-yl)-5-(trifluoromethyl)phenyl) methanesulfonamide] | 0.5 to 1 µM
